Source: US20260021131A1, “USE OF MI[…] IN COMBINATION WITH CA[…] TREATING NASOPHARYNGEAL CARCINOMA” (CSPC ZHONGQI PHARMACEUTICAL TECHNOLOGY (SHIJIAZHUANG) CO., …, priority 2022, published 2026)

Key:
[1] = system: subjects with recurrent and/or metastatic nasopharyngeal carcinoma who have failed platinum-based therapy; experiment: Phase III clinical study of mitoxantrone hydrochloride liposome injection combined with capecitabine versus capecitabine monotherapy: efficacy evaluation (best overall response, RECIST 1.1); format: in vivo, human; design: key to Best overall response: complete response (CR); partial response (PR); stable disease (SD); disease progression (PD)
Description: (§1) Example 1. A Randomized, Open-Label, Positive-Controlled, Multi-center Phase III Clinical Study of Mitoxantrone Hydrochloride Liposome Injection Combined with Capecitabine Versus Capecitabine Monotherapy in Subjects with Recurrent and/or Metastatic Nasopharyngeal Carcinoma Who Have Failed Platinum-Based Therapy.
This study is a randomized, open-label, positive-controlled, multicenter phase III clinical study whose objective is to evaluate the efficacy and safety of mitoxantrone hydrochloride liposome injection combined with capecitabine versus capecitabine monotherapy in subjects with recurrent and/or metastatic nasopharyngeal carcinoma.
(§2) Subjects with recurrent and/or metastatic nasopharyngeal carcinoma who have failed first-line or second-line platinum-based therapy will be enrolled. After screening, eligible subjects are stratified-randomized (stratification factors: (1) ECOG score: 0 vs. 1; (2) whether a liver metastasis is present: any metastasis is present vs. all metastases are not present; (3) gender: male vs. female) in a 1:1 ratio into an experimental group and a control group.
(§3) The experimental group receives treatment with mitoxantrone hydrochloride liposome injection (20 mg/m^2) combined with capecitabine (1000 mg/m^2, twice daily), with every 3 weeks as a treatment cycle. The mitoxantrone hydrochloride liposome is administered on day 1 of each cycle, and capecitabine is administered on days 1 to 14. After 8 cycles of treatment with the mitoxantrone hydrochloride liposome, the investigator will assess the patient's risk-benefit ratio to determine whether to continue treatment until disease progression or intolerance, and capecitabine monotherapy as maintenance treatment. The control group receives capecitabine monotherapy, with every 3 weeks as a treatment cycle. Capecitabine monotherapy is administered on days 1 to 14 of each cycle. Sparse blood collection is conducted for all subjects in the experimental group.
During the study, the Independent Data Monitoring Committee (IDMC) will conduct safety assessments after two cycles of treatment for the first 40 subjects enrolled (about 20 per group) and throughout the study. Enrollment will continue during the safety assessment period. All subjects will be treated until disease progression according to the RECIST1.1 criteria, intolerable toxicity, withdrawal of informed consent, initiation of new anti-tumor therapy, loss to follow-up, death, or end of study, whichever occurs first. If the subject has no more treatment options after the investigator first determines that the subject has experienced disease progression, and the investigator determines that the subject can continue to benefit from the trial treatment, the subject may continue to receive the trial treatment in this trial until disease progression as assessed by the IRC or the investigator determines that the subject no longer benefits. […]

[2] = system: subjects with recurrent and/or metastatic nasopharyngeal carcinoma who have failed platinum-based therapy; format: in vivo, human
Description: as §1, §2, §3
During the study, the Independent Data Monitoring Committee (IDMC) will conduct safety assessments after two cycles of treatment for the first 40 subjects enrolled (about 20 per group) and throughout the study. Enrollment will continue during the safety assessment period. All subjects will be treated until disease progression according to the RECIST1.1 criteria, intolerable toxicity, withdrawal of informed consent, initiation of new anti-tumor therapy, loss to follow-up, death, or end of study, whichever occurs first. If the subject has no more treatment options after the investigator first determines that the subject has experienced disease progression, and the investigator determines that the subject can continue to benefit from the trial treatment, the subject may continue to receive the trial treatment in this trial until disease progression as assessed by the IRC or the investigator determines that the subject no longer benefits.
• Objective response rate (ORR), disease control rate (DCR), and duration of response (DOR) as assessed by the investigator and the IRC • Progression-free survival (PFS) as assessed by the investigator • Frequency and severity of AEs (NCI CTCAE 5.0); changes in vital signs, physical examinations, electrocardiograms, and laboratory findings • Total mitoxantrone and free mitoxantrone plasma concentrations. • Note: The abbreviations described above have the following meanings: • PFS: progression-free survival, defined as the time between the initial treatment of study drug and the date of disease progression (PD) or death, whichever occurs first. • OS: overall survival, defined as the time from the initial treatment of the study drug to death from any cause. • ORR: objective response rate, defined as the proportion of subjects achieving complete response (CR) and partial response (PR). • DCR: disease control rate, defined as the proportion of subjects achieving complete response (CR), partial response (PR), and stable disease (SD). • DOR: duration of response, defined as the time from the first assessment of CR or PR to the first assessment of PD or death from any cause.

[3] = subjects evaluated for BOR (9 experimental group, 5 control group), by Jul. 31, 2023

CCCCCOC(=O)Nc1nc(=O)n([C@@H]2O[C@H](C)[C@@H](O)[C@H]2O)cc1F [control group, capecitabine]
Best overall response ([1]; subject S01005, ECOG 0, 1 line received, metastasis liver and lung): SD
Best overall response ([1]; subject S13001, ECOG 1, 1 line received, metastasis liver, spleen, and bone): PD
Best overall response ([1]; subject S14001, ECOG 1, 2 lines received, metastasis liver and bone): PD
Best overall response ([1]; subject S24001, ECOG 1, 2 lines received, metastasis bone): PR
Best overall response ([1]; subject S32001, ECOG 1, 1 line received, metastasis liver): PD
Best overall response (BOR): number of evaluated subjects with PD [1, 3]: three
Best overall response (BOR): number of evaluated subjects with PR [1, 3]: one
Best overall response (BOR): number of evaluated subjects with SD [1, 3]: one
Best overall response (BOR): percentage of evaluated subjects with PD [1, 3]: 60%
Best overall response (BOR): percentage of evaluated subjects with PR [1, 3]: 20%
Best overall response (BOR): percentage of evaluated subjects with SD [1, 3]: 20%
SAE: Acute epiglottitis ([2]; both, human, in vivo): 0 n (%)
SAE: Anemia ([2]; both, human, in vivo): 0 n (%)
SAE: Bacterial pneumonia ([2]; both, human, in vivo): 1 (3.3%) n (%)
SAE: Cancer pain ([2]; both, human, in vivo): 0 n (%)
SAE: Dysphagia ([2]; both, human, in vivo): 1 (3.3%) n (%)
SAE: General fatigue ([2]; both, human, in vivo): 0 n (%)
SAE: Hypokalemia ([2]; both, human, in vivo): 0 n (%)
SAE: Hyponatremia ([2]; both, human, in vivo): 0 n (%)
SAE: Neutrophil count decreased ([2]; both, human, in vivo): 0 n (%)
SAE: Oralmucositis ([2]; both, human, in vivo): 1 (3.3%) n (%)
SAE: Platelet count decreased ([2]; both, human, in vivo): 0 n (%)
SAE: Post-cardiac arrest resuscitation syndrome ([2]; both, human, in vivo): 1 (3.3%) n (%)
SAE: Posterior-circulation ischemia ([2]; both, human, in vivo): 1 (3.3%) n (%)
SAE: Pulmonary infection ([2]; both, human, in vivo): 0 n (%)
SAE: Severe pneumonia ([2]; both, human, in vivo): 1 (3.3%) n (%)
SAE: Sinusitis ([2]; both, human, in vivo): 0 n (%)
SAE: Upper airway obstruction ([2]; both, human, in vivo): 0 n (%)
SAE: White blood cell count decreased ([2]; both, human, in vivo): 0 n (%)
Subjects who experienced serious adverse events (SAEs), total ([2]; both, human, in vivo): 3 subjects
SAE: Death from unknown cause ([2]; experimental group N = 32, control group N = 30): 1 (3.3%) n (%)
Subjects who died (end of the study) ([2]; up to Jul. 31, 2023, 32 subjects experimental group, 30 subjects control group): two
